From patent US8530404B2, “Compounds and methods for treatment of cancer” (FibroGen, Inc., priority 2005, dated 2013)
Marks after values point to notes of the source that are not given here.

Columns and labels:
[1] = tested on: human H-460 lung tumors; test: Subcutaneously implanted human H-460 lung tumor mouse xenograft (Example 1); format: in vivo; conditions: for Mean Tumor Weight at Necropsy: day 32
Source text: Immuno-compromised athymic CD-1 nu/nu nude mice males (5-6 weeks old) were used in this study (Charles River Laboratories, Wilmington, Mass.). Animals were maintained in a HEPA-filtered environment during the experimental period. Cages, food, and bedding were autoclaved. Animal diets were obtained from Harlan Teklad (Madison, Wis.). […] The human H460 lung cancer cell line used was obtained from the National Cancer Institute. (Brower et al., (1986) Cancer Res 46:798-806.) Xenografted H-460 tumors are sensitive to chemotherapeutics commonly used in treatment of lung cancer. […] A stock tumor was established by subcutaneously injecting a cell suspension into nude mice. The resulting tumor was maintained in nude mice subcutaneously as tumor stock prior to use. Tumor implantation was performed when the stock tumors were in log phase of growth. Before implantation, tumor tissue was harvested from stock mice and placed in RPMI-1640 medium. Necrotic tissues were dissected away and viable tissues were cut into 1-2 mm^2 pieces. Tumor fragments were then transplanted subcutaneously to the right flank of the nude mice. Treatment (administration of compounds of the present invention) was started when the inoculated tumors reached approximately 100 mm^3, and continued for four weeks. […] [table] Sizes of the primary tumors were measured through the skin with calipers once per week. […] Body weight of the mice in each group was also measured once per week during the experimental period. All animals were sacrificed following thirty-two days of treatment. Primary tumors were excised and weighed on an electronic balance. Blood samples were taken during terminal sacrifice and placed in microhematocrit tubes containing EDTA. Complete Blood Counts (CBC) and reticulocyte analysis were performed with the Cell Dyn 3700 analyzer (Abbott Diagnostics), as described by the manufacturer.

[2] = Complete blood counts and reticulocyte analysis in H-460 xenograft mice (Example 1); format: in vivo, mouse; conditions: study end
Protocol: Sizes of the primary tumors were measured through the skin with calipers once per week. Tumor volumes were calculated by the formula V═(W^2*L)/2. Body weight of the mice in each group was also measured once per week during the experimental period. All animals were sacrificed following thirty-two days of treatment. Primary tumors were excised and weighed on an electronic balance. Blood samples were taken during terminal sacrifice and placed in microhematocrit tubes containing EDTA. Complete Blood Counts (CBC) and reticulocyte analysis were performed with the Cell Dyn 3700 analyzer (Abbott Diagnostics), as described by the manufacturer.

[3] = tested on: OVCAR3 ovarian tumors; test: Subcutaneous OVCAR3 ovarian tumor xenograft in SCID mice (Example 7); format: in vivo, mouse; conditions: 60 mg/kg; study end (day 29); FIG. 2
Protocol: The experiment was conducted essentially as described above in Example 3, except that the tumors of GFP-transfected H460 cells were replaced with OVCAR3 ovarian tumors. […] FIG. 2 is a Kruskal-Wallis box plot. The central bar within each box indicates the median value for the group, the limits of the various boxes and whiskers indicate group quartiles within the total distribution of values determined in this study.

[4] = tested on: MDA-MB-435-GFP breast tumors; test: Orthotopically implanted human MDA-MB-435-GFP breast tumor mouse xenograft (Example 5); format: in vivo; conditions: 33 days of treatment; FIG. 1; dose not stated
Protocol: The experiment was conducted essentially as described above in Example 3, except that the tumors of GFP-transfected H-460 cells were replaced with MDA-MB-435-GFP breast tumors, with surgical orthotopic implantation directly into breast tissue of female CD-1 nude animals. The number of animals in each group was increased to 15. […] (See, e.g., Ross et al (2000) Nat Genet 24:227-235 and Ellison et al. Mol Pathol. (2002) 55:294-299.)
In the present MDA-MB-435-GFP breast cancer orthotopic study, administration of compound A was initiated 21 days after tumor fragment implantation to the mammary fat pad of female nude mice, at time at which the volume of primary tumors reached ˜150 mm^3. Taxotere, a positive chemotherapeutic agent control, was administered i.v. once weekly (15 mg/kg). After mean tumor volume in the vehicle control group exceeded 1 cm^3, animals were sacrificed (33 days of treatment) and primary tumors were excised from all animals and weighed.

[5] = tested on: H460 tumor cells; test: Subcutaneous H460 lung tumor xenograft, tumor growth delay study in combination with chemotherapeutics (Example 6); format: in vivo, mouse; conditions: Cmpd A 60 mg/kg p.o., paclitaxel 15 mg/kg i.v., carboplatin 120 mg/kg i.p.
Protocol: This study was used to determine the effect of combined treatments where compounds and methods of the invention were combined with conventional anti-tumor therapies. These experiments were performed essentially as described above in Example 3, except that 1×10^7 H460 tumor cells were implanted subcutaneously to the flanks of female Harlan nude animals. The number of animals in each group was 10. Treatments were initiated when tumors reached an average size of approximately 100 mm^3.
The study design was representative of tumor progression studies of the TGD (Tumor Growth Delay) type, using a protocol that required individual animals to be humanely euthanized after reaching a set endpoint of tumor volume greater than or equal to 2 cc.
These two chemotherapeutic agents are of two broad classes of conventional anti-tumor therapeutics: microtubule poisons (paclitaxcel); and DNA-directed agents, including the sub-classification of DNA alkylating agents (carboplatin). In tumor-bearing human patients, conventional anti-tumor therapy commonly use of one or both classes of chemotherapeutic agents.
The study was initiated with administration of conventional anti-tumor treatment or vehicle control, and followed one day after with administration of Compound A or vehicle control. […] (See Table 11 and Table 12 for compound and chemotherapeutic agent dosing schedule.)
Tumor progression was determined for each treatment group and is presented as median Time-to-Endpoint (TTE).

Compound: COc1ccc(Oc2ccc3c(O)c(C(=O)NCC(=O)O)ncc3c2)cc1 [Compound C, {[4-Hydroxy-7-(4-methoxy-phenoxy)-isoquinoline-3-carbonyl]-amino}-acetic acid]
- mean tumor volume ([1]; day 0, 20 mg/kg PO): 91 mm^3
- mean tumor volume ([1]; day 10, 20 mg/kg PO): 638 mm^3
- mean tumor volume ([1]; day 17, 20 mg/kg PO): 1365 mm^3
- mean tumor volume ([1]; day 24, 20 mg/kg PO): 2239** mm^3
- mean tumor volume ([1]; day 31, 20 mg/kg PO): 2373** mm^3
- Mean Tumor Weight at Necropsy ([1]; 20 mg/kg PO): 2.35 g
- Abs Retic (reticulocyte count) ([2]; 20 mg/kg PO): 457
- Baso % ([2]; 20 mg/kg PO): 1.47%
- Baso (basophils) ([2]; 20 mg/kg PO): 150 µL⁻¹
- EOS % ([2]; 20 mg/kg PO): 0.47%
- Eos (eosinophil count) ([2]; 20 mg/kg PO): 40 µL⁻¹
- HCT (hematocrit) ([2]; 20 mg/kg PO): 41.1%
- HGB (hemoglobin) ([2]; 20 mg/kg PO): 14.0 g/dL
- IRF (immature RET fraction) ([2]; 20 mg/kg PO): 0.56
- Lymph % ([2]; 20 mg/kg PO): 25.2%
- Lymph (lymphocytes) ([2]; 20 mg/kg PO): 3000 µL⁻¹
- MCH (mean corpuscular hemoglobin) ([2]; 20 mg/kg PO): 14.9 pg
- MCHC (MCH concentration) ([2]; 20 mg/kg PO): 34.1 g/dL
- MCV (mean corpuscular volume) ([2]; 20 mg/kg PO): 43.8 fL
- Mono % ([2]; 20 mg/kg PO): 2.67%
- Mono (monocytes) ([2]; 20 mg/kg PO): 320 µL⁻¹
- Neut % ([2]; 20 mg/kg PO): 70.2%
- Neut (neutrophils) ([2]; 20 mg/kg PO): 11400 µL⁻¹
- PLAT (platelets) ([2]; 20 mg/kg PO): 1.707e+06 µL⁻¹
- RBC (red blood cells) ([2]; 20 mg/kg PO): 9.36e+06 µL⁻¹
- RDW (RBC distribution width) ([2]; 20 mg/kg PO): 22.3%
- RET (reticulocytes) ([2]; 20 mg/kg PO): 4.9%
- WBC (white blood cells) ([2]; 20 mg/kg PO): 14900 µL⁻¹

Compound: Cc1nc(C(=O)NCC(=O)O)c(O)c2ccc(Oc3ccccc3)cc12 [Compound D, [(4-Hydroxy-1-methyl-7-phenoxy-isoquinoline-3-carbonyl)-amino]-acetic acid]
- reduction of median tumor volume compared to vehicle-treated control [3]: 5%

Compound: O=C(O)CNC(=O)c1nc(Cl)c2ccccc2c1O [Compound A, [(1-Chloro-4-hydroxy-isoquinoline-3-carbonyl)-amino]-acetic acid]
- mean tumor volume ([1]; day 0, 20 mg/kg PO): 88 mm^3
- mean tumor volume ([1]; day 0, 60 mg/kg PO): 105 mm^3
- mean tumor volume ([1]; day 10, 20 mg/kg PO): 730 mm^3
- mean tumor volume ([1]; day 10, 60 mg/kg PO): 895 mm^3
- mean tumor volume ([1]; day 17, 20 mg/kg PO): 1376 mm^3
- mean tumor volume ([1]; day 17, 60 mg/kg PO): 1742 mm^3
- mean tumor volume ([1]; day 24, 20 mg/kg PO): 2499** mm^3
- mean tumor volume ([1]; day 24, 60 mg/kg PO): 2662* mm^3
- mean tumor volume ([1]; day 31, 20 mg/kg PO): 2670** mm^3
- mean tumor volume ([1]; day 31, 60 mg/kg PO): 2968* mm^3
- Mean Tumor Weight at Necropsy ([1]; 20 mg/kg PO): 3.05 g
- Mean Tumor Weight at Necropsy ([1]; 60 mg/kg PO): 3.09 g
- reduction of mean tumor volumes compared to vehicle control [4]: approximately 20%
- reduction of median tumor volume compared to vehicle-treated control [3]: 26%
- % TGD, Percent Tumor Growth Delay (vs. Group control) [5]: 9%
- T-C (Test-control, difference of medians) [5]: 1.5 days
- % TGD, Percent Tumor Growth Delay (vs. Group control) ([5]; listed as Cmpd. A): 9%
- Median TTE (Time-to-Endpoint, tumor volume >= 2 cc) ([5]; vehicle group 16.2): 17.7 days

Compound: C[C@H](NC(=O)c1ncc2cc(Oc3ccccc3)ccc2c1O)C(=O)O [Compound B, (S)-2-[(4-Hydroxy-7-phenoxy-isoquinoline-3-carbonyl)-amino]-propionic acid]
- mean tumor volume ([1]; day 0, 6 mg/kg PO): 101 mm^3
- mean tumor volume ([1]; day 0, 20 mg/kg PO): 108 mm^3
- mean tumor volume ([1]; day 10, 6 mg/kg PO): 884 mm^3
- mean tumor volume ([1]; day 10, 20 mg/kg PO): 914 mm^3
- mean tumor volume ([1]; day 17, 6 mg/kg PO): 1949 mm^3
- mean tumor volume ([1]; day 17, 20 mg/kg PO): 1858 mm^3
- mean tumor volume ([1]; day 24, 6 mg/kg PO): 3131 mm^3
- mean tumor volume ([1]; day 24, 20 mg/kg PO): 3074 mm^3
- mean tumor volume ([1]; day 31, 6 mg/kg PO): 3343 mm^3
- mean tumor volume ([1]; day 31, 20 mg/kg PO): 3229 mm^3
- Mean Tumor Weight at Necropsy ([1]; 6 mg/kg PO): 4.27 g
- Mean Tumor Weight at Necropsy ([1]; 20 mg/kg PO): 3.60 g
- Abs Retic (reticulocyte count) ([2]; 6 mg/kg PO): 653
- Baso % ([2]; 6 mg/kg PO): 6.35%
- Baso (basophils) ([2]; 6 mg/kg PO): 1840 µL⁻¹
- EOS % ([2]; 6 mg/kg PO): 0.49%
- Eos (eosinophil count) ([2]; 6 mg/kg PO): 80 µL⁻¹
- HCT (hematocrit) ([2]; 6 mg/kg PO): 37.7%
- HGB (hemoglobin) ([2]; 6 mg/kg PO): 12.7 g/dL
- IRF (immature RET fraction) ([2]; 6 mg/kg PO): 0.64
- Lymph % ([2]; 6 mg/kg PO): 18.3%
- Lymph (lymphocytes) ([2]; 6 mg/kg PO): 4700 µL⁻¹
- MCH (mean corpuscular hemoglobin) ([2]; 6 mg/kg PO): 14.6 pg
- MCHC (MCH concentration) ([2]; 6 mg/kg PO): 33.8 g/dL
- MCV (mean corpuscular volume) ([2]; 6 mg/kg PO): 43.2 fL
- Mono % ([2]; 6 mg/kg PO): 7.61%
- Mono (monocytes) ([2]; 6 mg/kg PO): 2370 µL⁻¹
- Neut % ([2]; 6 mg/kg PO): 67.5%
- Neut (neutrophils) ([2]; 6 mg/kg PO): 18400 µL⁻¹
- PLAT (platelets) ([2]; 6 mg/kg PO): 1.536e+06 µL⁻¹
- RBC (red blood cells) ([2]; 6 mg/kg PO): 8.71e+06 µL⁻¹
- RDW (RBC distribution width) ([2]; 6 mg/kg PO): 21.4%
- RET (reticulocytes) ([2]; 6 mg/kg PO): 7.5%
- WBC (white blood cells) ([2]; 6 mg/kg PO): 27300 µL⁻¹
- Abs Retic (reticulocyte count) ([2]; 20 mg/kg PO): 552
- Baso % ([2]; 20 mg/kg PO): 4.52%
- Baso (basophils) ([2]; 20 mg/kg PO): 780 µL⁻¹
- EOS % ([2]; 20 mg/kg PO): 0.44%
- Eos (eosinophil count) ([2]; 20 mg/kg PO): 70 µL⁻¹
- HCT (hematocrit) ([2]; 20 mg/kg PO): 37.7%
- HGB (hemoglobin) ([2]; 20 mg/kg PO): 12.7 g/dL
- IRF (immature RET fraction) ([2]; 20 mg/kg PO): 0.56
- Lymph % ([2]; 20 mg/kg PO): 14.6%
- Lymph (lymphocytes) ([2]; 20 mg/kg PO): 2700 µL⁻¹
- MCH (mean corpuscular hemoglobin) ([2]; 20 mg/kg PO): 14.5 pg
- MCHC (MCH concentration) ([2]; 20 mg/kg PO): 33.7 g/dL
- MCV (mean corpuscular volume) ([2]; 20 mg/kg PO): 43.0 fL
- Mono % ([2]; 20 mg/kg PO): 4.88%
- Mono (monocytes) ([2]; 20 mg/kg PO): 850 µL⁻¹
- Neut % ([2]; 20 mg/kg PO): 75.6%
- Neut (neutrophils) ([2]; 20 mg/kg PO): 16500 µL⁻¹
- PLAT (platelets) ([2]; 20 mg/kg PO): 1.767e+06 µL⁻¹
- RBC (red blood cells) ([2]; 20 mg/kg PO): 8.78e+06 µL⁻¹
- RDW (RBC distribution width) ([2]; 20 mg/kg PO): 21.7%
- RET (reticulocytes) ([2]; 20 mg/kg PO): 6.3%
- WBC (white blood cells) ([2]; 20 mg/kg PO): 20800 µL⁻¹
